From US6262305A, “Process and intermediates for preparing 3-(substituted phenyl)-5-(thienyl or furyl)-1,2,4-triazole compounds” (priority 1999, dated 2001)

Tested on: Cotton Aphid
Assay: Seed Treatment Test vs. Cotton Aphid on Squash
Format: in vivo, Aphis gossypii
Protocol: Seed Treatment Test vs. Cotton Aphid on Squash
Four-inch pots were filled two-thirds full with sieved soil mix (70 sand/30 pulverized soil). Compound was applied as a suspension to the center in 4 ml volume. Squash seed placed in the applied chemical zone was covered with soil mix 1 cm deep. […] The plants were then infested with aphids. Four days later, aphid counts were made.

| SMILES | % Ctrl., cotton aphid on Squash - 1st True Leaf (0.05 mg/pot) | Cotton aphid counts on Squash - 1st True Leaf, Mean (0.05 mg/pot) | % Ctrl., cotton aphid on Squash - cotyledon (0.05 mg/pot) | Cotton aphid counts on Squash - cotyledon, Mean (0.05 mg/pot) | % Ctrl., cotton aphid on Squash - 1st True Leaf (0.2 mg/pot) | Cotton aphid counts on Squash - 1st True Leaf, Mean (0.2 mg/pot) | % Ctrl., cotton aphid on Squash - cotyledon (0.2 mg/pot) | Cotton aphid counts on Squash - cotyledon, Mean (0.2 mg/pot) | % Ctrl., cotton aphid on Squash - 1st True Leaf (0.8 mg/pot) | Cotton aphid counts on Squash - 1st True Leaf, Mean (0.8 mg/pot) | % Ctrl., cotton aphid on Squash - cotyledon (0.8 mg/pot) | Cotton aphid counts on Squash - cotyledon, Mean (0.8 mg/pot) | % Ctrl., cotton aphid on Squash - 1st True Leaf (3.2 mg/pot) | Cotton aphid counts on Squash - 1st True Leaf, Mean (3.2 mg/pot) | % Ctrl., cotton aphid on Squash - cotyledon (3.2 mg/pot) | Cotton aphid counts on Squash - cotyledon, Mean (3.2 mg/pot) | % Ctrl., cotton aphid on Squash - 1st True Leaf (12.8 mg/pot) | Cotton aphid counts on Squash - 1st True Leaf, Mean (12.8 mg/pot) | % Ctrl., cotton aphid on Squash - cotyledon (12.8 mg/pot) | Cotton aphid counts on Squash - cotyledon, Mean (12.8 mg/pot) |
| --- | --- | --- | --- | --- | --- | --- | --- | --- | --- | --- | --- | --- | --- | --- | --- | --- | --- | --- | --- | --- |
| O=[N+]([O-])NC1=NCCN1Cc1ccc(Cl)nc1 [Imidacloprid, reference compound] | 58.5% | 35.0 | 97.6% | 2.5 | 88.4% | 9.8 | 100% | 0 | 100.0% | 0.0 | 100% | 0 |  |  |  |  |  |  |  |  |
| Cn1nc(-c2c(F)cccc2Cl)nc1-c1sc(Cl)c(Cl)c1Cl [Compound 2, 3-(2-chloro-6-fluorophenyl)-5-(3,4,5-trichlorothien-2-yl)-1-methyl[1,2,4]triazole] |  |  |  |  |  |  |  |  | 85.8% | 12.0 | 54.4% | 48.0 | 95.9% | 3.5 | 93.1% | 7.3 | 96.1% | 3.3 | 93.3% | 7.0 |
| Cn1nc(-c2c(Cl)cccc2Cl)nc1-c1sc(Cl)c(Cl)c1Cl [Compound 45, 3-(2,6-dichlorophenyl)-5-(3,4,5-trichlorothien-2-yl)-1-methyl[1,2,4]triazole] |  |  |  |  |  |  |  |  | 51.7% | 40.8 | 0% | 165.5 | 77.8% | 18.8 | 52.3% | 50.3 | 90.2% | 8.3 | 24.0% | 80.0 |
